Test [1] deals with T1, recombinant human NK3 receptor (Homo sapiens, UniProt P29371).
T1 construct: expressed in transfected cells; host or cells: HEK293 cells, transient expression; membranes
T1 sequence (P29371 1-465): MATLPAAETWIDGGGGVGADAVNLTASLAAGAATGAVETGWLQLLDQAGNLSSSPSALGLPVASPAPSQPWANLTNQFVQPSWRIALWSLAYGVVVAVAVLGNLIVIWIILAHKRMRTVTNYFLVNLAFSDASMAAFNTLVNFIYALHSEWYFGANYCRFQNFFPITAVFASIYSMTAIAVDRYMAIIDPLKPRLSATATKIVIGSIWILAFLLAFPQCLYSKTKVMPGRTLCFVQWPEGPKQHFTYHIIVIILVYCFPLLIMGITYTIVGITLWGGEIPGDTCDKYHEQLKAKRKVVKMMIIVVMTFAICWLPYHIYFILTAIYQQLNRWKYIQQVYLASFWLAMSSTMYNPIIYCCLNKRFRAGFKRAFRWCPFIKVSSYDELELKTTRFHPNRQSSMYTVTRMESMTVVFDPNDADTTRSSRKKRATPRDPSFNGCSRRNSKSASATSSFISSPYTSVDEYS
The experiment in a line: [3H]SR142801 competition binding assay.

Test [2] concerns the target T2, NK3 tachykinin receptor (Homo sapiens, UniProt P29371).
T2 sequence (P29371 1-465): T1 sequence (P29371 1-465)
The settings on record: phase II trial, cited from earlier work.

Like-named read-outs stand apart in the source and are kept apart here.

The values that follow come from US9226916B2, “Pyrrolidine derivatives” (HOFFMANN-LA ROCHE INC., priority 2009, dated 2016).

For the molecule `CN(C(=O)Oc1ccc(F)cc1)[C@@H]1CN(C(=O)C2CCN(c3ccc(C(F)(F)F)cn3)CC2)C[C@H]1c1ccc(Cl)c(Cl)c1` [Example 306, [(3S,4R)-4-(3,4-Dichloro-phenyl)-1-(5′-trifluoromethyl-3,4,5,6-tetrahydro-2H-[1,2′]bipyridinyl-4-carbonyl)-pyrrolidin-3-yl]-methyl-carbamic acid 4-fluoro-phenyl ester], the Ki – broadly, a measure of affinity in units of concentration, obtained from inhibition or displacement – in test [1] stood at 0.7 nM.
Same read-out and setting: next, `CN(C(=O)Oc1ccc(F)cc1)[C@@H]1CN(C(=O)C2CCN(c3ccc(Cl)cn3)CC2)C[C@H]1c1ccc(Cl)c(Cl)c1` [Example 308, [(3S,4R)-1-(5′-Chloro-3,4,5,6-tetrahydro-2H-[1,2′]bipyridinyl-4-carbonyl)-4-(3,4-dichloro-phenyl)-pyrrolidin-3-yl]-methyl-carbamic acid 4-fluoro-phenyl ester]: 0.2 nM; `CN(C(=O)Oc1ccc(F)cc1)[C@@H]1CN(C(=O)C2CCN(c3ccc(F)cn3)CC2)C[C@H]1c1ccc(Cl)c(Cl)c1` [Example 309, [(3S,4R)-4-(3,4-Dichloro-phenyl)-1-(5′-fluoro-3,4,5,6-tetrahydro-2H-[1,2′]bipyridinyl-4-carbonyl)-pyrrolidin-3-yl]-methyl-carbamic acid 4-fluoro-phenyl ester]: 0.5 nM; `CN(C(=O)Oc1ccc(F)cc1)[C@@H]1CN(C(=O)C2CCN(c3ccc(C(N)=O)cn3)CC2)C[C@H]1c1ccc(Cl)c(Cl)c1` [Example 310, [(3S,4R)-1-(5′-Carbamoyl-3,4,5,6-tetrahydro-2H-[1,2′]bipyridinyl-4-carbonyl)-4-(3,4-dichloro-phenyl)-pyrrolidin-3-yl]-methyl-carbamic acid 4-fluoro-phenyl ester]: 0.6 nM.
On the same count and under the same terms, the result for `CN(C(=O)Oc1ccc(F)cc1)[C@@H]1CN(C(=O)C2CCN(c3ccc(F)cn3)CC2)C[C@H]1c1ccc(Cl)c(F)c1` [Example 311, [(3S,4R)-4-(4-Chloro-3-fluoro-phenyl)-1-(5′-fluoro-3,4,5,6-tetrahydro-2H-[1,2′]bipyridinyl-4-carbonyl)-pyrrolidin-3-yl]-methyl-carbamic acid 4-fluoro-phenyl ester] reads 0.9 nM.
Still for that read-out and setting: next, `CN(C(=O)Oc1ccc(F)cc1)[C@@H]1CN(C(=O)C2CCN(c3ccc(Cl)cn3)CC2)C[C@H]1c1ccc(Cl)c(F)c1` [Example 312, [(3S,4R)-4-(4-Chloro-3-fluoro-phenyl)-1-(5′-chloro-3,4,5,6-tetrahydro-2H-[1,2′]bipyridinyl-4-carbonyl)-pyrrolidin-3-yl]-methyl-carbamic acid 4-fluoro-phenyl ester]: 0.4 nM.
Regarding `CN(C(=O)Oc1ccc(F)cc1)[C@@H]1CN(C(=O)C2CCN(c3ccc(C(F)(F)F)cn3)CC2)C[C@H]1c1ccc(Cl)c(F)c1` [Example 313, [(3S,4R)-4-(4-Chloro-3-fluoro-phenyl)-1-(5′-trifluoromethyl-3,4,5,6-tetrahydro-2H-[1,2′]bipyridinyl-4-carbonyl)-pyrrolidin-3-yl]-methyl-carbamic acid 4-fluoro-phenyl ester], in test [1], the Ki came out at 0.9 nM.
For the molecule `CC(=O)c1ccc(N2CCC(C(=O)N3C[C@@H](N(C)C(=O)Oc4ccc(F)cc4)[C@H](c4ccc(Cl)c(F)c4)C3)CC2)nc1` [Example 314, [(3S,4R)-1-(5′-Acetyl-3,4,5,6-tetrahydro-2H-[1,2′]bipyridinyl-4-carbonyl)-4-(4-chloro-3-fluoro-phenyl)-pyrrolidin-3-yl]-methyl-carbamic acid 4-fluoro-phenyl ester], in test [1], the Ki came out at 0.6 nM.
Take `CN(C(=O)Oc1ccc(F)cc1)[C@@H]1CN(C(=O)C2CCN(c3ccc(F)cn3)CC2)C[C@H]1c1ccc(F)c(Cl)c1` [Example 315, [(3S,4R)-4-(3-Chloro-4-fluoro-phenyl)-1-(5′-fluoro-3,4,5,6-tetrahydro-2H-[1,2′]bipyridinyl-4-carbonyl)-pyrrolidin-3-yl]-methyl-carbamic acid 4-fluoro-phenyl ester]: the Ki in test [1] was found to be 1.7 nM.
The same measure, in the same setting: the result for `CN(C(=O)Oc1ccc(F)cc1)[C@@H]1CN(C(=O)C2CCN(c3ccc(Cl)cn3)CC2)C[C@H]1c1ccc(F)c(Cl)c1` [Example 316, [(3S,4R)-4-(3-Chloro-4-fluoro-phenyl)-1-(5′-chloro-3,4,5,6-tetrahydro-2H-[1,2′]bipyridinyl-4-carbonyl)-pyrrolidin-3-yl]-methyl-carbamic acid 4-fluoro-phenyl ester] reads 0.9 nM.
Still for that read-out and setting: next, `CN(C(=O)Oc1ccc(F)cc1)[C@@H]1CN(C(=O)C2CCN(c3ccc(C(F)(F)F)cn3)CC2)C[C@H]1c1ccc(F)c(Cl)c1` [Example 317, [(3S,4R)-4-(3-Chloro-4-fluoro-phenyl)-1-(5′-trifluoromethyl-3,4,5,6-tetrahydro-2H-[1,2′]bipyridinyl-4-carbonyl)-pyrrolidin-3-yl]-methyl-carbamic acid 4-fluoro-phenyl ester]: 1.6 nM.
As for `CC(=O)c1ccc(N2CCC(C(=O)N3C[C@@H](N(C)C(=O)Oc4ccc(F)cc4)[C@H](c4ccc(F)c(Cl)c4)C3)CC2)nc1` [Example 318, [(3S,4R)-1-(5′-Acetyl-3,4,5,6-tetrahydro-2H-[1,2′]bipyridinyl-4-carbonyl)-4-(3-chloro-4-fluoro-phenyl)-pyrrolidin-3-yl]-methyl-carbamic acid 4-fluoro-phenyl ester], the Ki in test [1] is 0.7 nM.
Take `CN(C(=O)Oc1ccc(F)cc1)[C@@H]1CN(C(=O)C2CCN(C(=O)[C@@H]3CC(=O)N3)CC2)C[C@H]1c1ccc(Cl)cc1` [Example 319, {(3S,4R)-4-(4-Chloro-phenyl)-1-[1-((S)-4-oxo-azetidine-2-carbonyl)-piperidine-4-carbonyl]-pyrrolidin-3-yl}-methyl-carbamic acid 4-fluoro-phenyl ester]: the Ki in test [1] turned out to be 10.6 nM.
On the same count and under the same terms, the result for `CN(C(=O)Oc1ccc(F)cc1)[C@@H]1CN(C(=O)C2CCN(c3ccc(O)cn3)CC2)C[C@H]1c1ccc(Cl)cc1` [Example 320, [(3S,4R)-4-(4-Chloro-phenyl)-1-(5′-hydroxy-3,4,5,6-tetrahydro-2H-[1,2′]bipyridinyl-4-carbonyl)-pyrrolidin-3-yl]-methyl-carbamic acid 4-fluoro-phenyl ester] reads 6.7 nM; that for `CC(=O)Oc1ccc(N2CCC(C(=O)N3C[C@@H](N(C)C(=O)Oc4ccc(F)cc4)[C@H](c4ccc(Cl)cc4)C3)CC2)nc1` [Example 321, Acetic acid 4-{(3R,4S)-3-(4-chloro-phenyl)-4-[(4-fluoro-phenoxycarbonyl)-methyl-amino]-pyrrolidine-1-carbonyl}-3,4,5,6-tetrahydro-2H-[1,2′]bipyridinyl-5′-yl ester], 2.4 nM.
As to `CC(=O)N(C)C1(c2ccccc2)CCN(CCC[C@]2(c3ccc(Cl)c(Cl)c3)CCCN(C(=O)c3ccccc3)C2)CC1` [SR 142,801, Osanetant], in test [2] (negative symptoms (depression, anhedonia, social isolation, memory and attention deficits)), the “activity in the treatment of negative symptoms of schizophrenia” value was “inactive”. The “activity on positive symptoms of schizophrenia” value in test [2] (positive symptoms (altered behaviour, delusion, hallucinations, extreme emotions, excited motor activity, incoherent speech)) is reported as “active”.
With “rac-{(3R,4S)-4-(3,4-Dichloro-phenyl)-1-[1-(1-methyl-cyclopropanecarbonyl)-piperidine-4-carbonyl]-pyrrolidin-3-yl}-methyl-carbamic acid (S)-1-(tetrahydro-furan-2-yl)methyl ester and rac-{(3R,4S)-4-(3,4-Dichloro-phenyl)-1-[1-(1-methyl-cyclopropanecarbonyl)-piperidine-4-carbonyl]-pyrrolidin-3-yl}-methyl-carbamic acid (R)-1-(tetrahydro-furan-2-yl)methyl ester [Example 84]”, the Ki in test [1] (read-out: Data Ki) was found to be 18.3 nM.
